According to PMC7613998, “Development of selective inhibitors of phosphatidylinositol 3-kinase C2α” (Nature Chemical Biology, 2022):
Like-named read-outs stand apart in the source and are kept apart here.

How the values were obtained:
Assay in all cases: biochemical
[1] = target: T1, PIK3C2G (PI3K-C2 gamma) (Homo sapiens, UniProt O75747); parameters: SelectScreen Adapta purified lipid kinase panel, 1 uM compound, 10 uM ATP, per cent inhibition; conditions: ATP=10; Technology=Adapta; 10 uM ATP
T1 sequence (O75747 1-1486): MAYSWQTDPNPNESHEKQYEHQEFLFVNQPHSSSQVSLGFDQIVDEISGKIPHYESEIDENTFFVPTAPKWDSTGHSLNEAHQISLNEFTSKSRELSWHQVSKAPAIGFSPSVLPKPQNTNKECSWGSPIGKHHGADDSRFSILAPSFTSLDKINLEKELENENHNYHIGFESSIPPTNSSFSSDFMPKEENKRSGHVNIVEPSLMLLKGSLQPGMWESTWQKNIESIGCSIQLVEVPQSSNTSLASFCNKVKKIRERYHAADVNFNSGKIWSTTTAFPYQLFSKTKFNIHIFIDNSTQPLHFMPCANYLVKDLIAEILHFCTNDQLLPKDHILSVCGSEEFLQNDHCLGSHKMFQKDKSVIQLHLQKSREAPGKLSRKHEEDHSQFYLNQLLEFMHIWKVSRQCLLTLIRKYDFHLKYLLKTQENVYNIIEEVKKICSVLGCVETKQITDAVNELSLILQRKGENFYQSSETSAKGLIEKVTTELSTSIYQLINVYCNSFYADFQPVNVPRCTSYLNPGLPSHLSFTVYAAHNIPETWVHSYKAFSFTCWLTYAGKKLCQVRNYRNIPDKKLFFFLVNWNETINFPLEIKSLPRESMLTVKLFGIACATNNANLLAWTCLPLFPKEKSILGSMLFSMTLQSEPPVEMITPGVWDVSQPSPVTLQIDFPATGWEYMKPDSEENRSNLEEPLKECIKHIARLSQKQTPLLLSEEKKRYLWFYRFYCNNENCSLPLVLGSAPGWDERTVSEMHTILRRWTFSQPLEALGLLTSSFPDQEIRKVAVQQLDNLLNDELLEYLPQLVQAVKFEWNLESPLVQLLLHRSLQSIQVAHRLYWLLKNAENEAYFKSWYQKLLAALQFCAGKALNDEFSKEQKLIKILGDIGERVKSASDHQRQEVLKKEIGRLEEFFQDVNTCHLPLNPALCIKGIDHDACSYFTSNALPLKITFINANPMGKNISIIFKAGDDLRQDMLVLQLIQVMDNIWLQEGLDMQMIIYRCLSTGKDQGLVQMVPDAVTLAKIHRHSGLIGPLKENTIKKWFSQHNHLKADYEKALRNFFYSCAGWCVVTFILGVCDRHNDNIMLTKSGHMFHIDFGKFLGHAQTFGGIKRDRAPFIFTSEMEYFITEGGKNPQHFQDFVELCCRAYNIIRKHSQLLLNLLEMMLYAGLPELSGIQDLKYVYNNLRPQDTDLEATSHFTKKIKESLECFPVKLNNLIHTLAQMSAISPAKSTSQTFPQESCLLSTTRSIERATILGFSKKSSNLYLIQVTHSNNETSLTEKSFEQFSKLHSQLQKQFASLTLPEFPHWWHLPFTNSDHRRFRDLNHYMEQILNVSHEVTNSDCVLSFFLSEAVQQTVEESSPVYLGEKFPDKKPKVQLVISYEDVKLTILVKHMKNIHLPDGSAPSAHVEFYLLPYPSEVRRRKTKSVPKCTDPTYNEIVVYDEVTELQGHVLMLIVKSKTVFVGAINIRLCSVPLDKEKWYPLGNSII
Method: (§1) As PI3KC2α is related to other PI3Ks and to PI3K-like protein kinases such as mTOR, the selectivity of PITCOINs was determined in a panel of biochemical assays. […] Finally, the high specificity of PITCOINs for PI3KC2α was verified by Kinobead profiling experiments. In this approach, the ability of PITCOINs to compete the affinity capture of cellular kinases on immobilized nonselective kinase inhibitors (Kinobeads) is analyzed by mass spectrometry (MS)[31]. […] Four nonkinase weak off-targets were globally found for the three inhibitors with only FECH[32] common to the three PITCOINs (Supplementary Dataset).  Extended Data Fig. 2 Lipid kinase inhibitor profile of PITCOIN1-3. (a–c) Selectivity profiling of PITCOIN1-3 (1 µM) with purified lipid kinases in the presence of 10 µM ATP. […] Data are presented as mean ± SD from two independent experiments. (d, e) IC50 measurements of PITCOIN1-3 against purified recombinant class I PI3K p110α/p85α (d) or purified class III PI3K VPS34 complex II (e). 10 µM ATP and 20 µM PIP3 (for p110α/p85α) or 200 µM PI (for VPS34 complex II) were used as substrates. […] Data are presented as mean ± SD from two independent experiments. Source data

[2] = target: PIK3CA E542K/PIK3R1 (p110 alpha E542K/p85 alpha) (Homo sapiens, UniProt P42336, E542K); parameters: SelectScreen Adapta purified lipid kinase panel, 1 uM compound, 10 uM ATP, per cent inhibition; conditions: ATP=10; Technology=Adapta; 10 uM ATP
Method: as §1

[3] = target: FRAP1 (mTOR) (Homo sapiens, UniProt P42345); parameters: SelectScreen Z'-LYTE mTOR kinase assay, 1 uM compound, 10 uM ATP, per cent inhibition; conditions: ATP=10; Technology=ZLYTE; 10 uM ATP
Method: as §1

[4] = target: T2, VPS34 complex II (Homo sapiens, UniProt Q8NEB9); parameters: Lipid kinase activity assay on purified class I PI3K or VPS34 complex II, 10 uM ATP
T2 construct: gene PIK3C3
Method: Extended Data Fig. 2 Lipid kinase inhibitor profile of PITCOIN1-3. (a–c) Selectivity profiling of PITCOIN1-3 (1 µM) with purified lipid kinases in the presence of 10 µM ATP. […] Data are presented as mean ± SD from two independent experiments. (d, e) IC50 measurements of PITCOIN1-3 against purified recombinant class I PI3K p110α/p85α (d) or purified class III PI3K VPS34 complex II (e). 10 µM ATP and 20 µM PIP3 (for p110α/p85α) or 200 µM PI (for VPS34 complex II) were used as substrates. […] Data are presented as mean ± SD from two independent experiments. Source data

Chain of PIK3CA E542K/PIK3R1 (p110 alpha E542K/p85 alpha) (P42336 whole entry E542K): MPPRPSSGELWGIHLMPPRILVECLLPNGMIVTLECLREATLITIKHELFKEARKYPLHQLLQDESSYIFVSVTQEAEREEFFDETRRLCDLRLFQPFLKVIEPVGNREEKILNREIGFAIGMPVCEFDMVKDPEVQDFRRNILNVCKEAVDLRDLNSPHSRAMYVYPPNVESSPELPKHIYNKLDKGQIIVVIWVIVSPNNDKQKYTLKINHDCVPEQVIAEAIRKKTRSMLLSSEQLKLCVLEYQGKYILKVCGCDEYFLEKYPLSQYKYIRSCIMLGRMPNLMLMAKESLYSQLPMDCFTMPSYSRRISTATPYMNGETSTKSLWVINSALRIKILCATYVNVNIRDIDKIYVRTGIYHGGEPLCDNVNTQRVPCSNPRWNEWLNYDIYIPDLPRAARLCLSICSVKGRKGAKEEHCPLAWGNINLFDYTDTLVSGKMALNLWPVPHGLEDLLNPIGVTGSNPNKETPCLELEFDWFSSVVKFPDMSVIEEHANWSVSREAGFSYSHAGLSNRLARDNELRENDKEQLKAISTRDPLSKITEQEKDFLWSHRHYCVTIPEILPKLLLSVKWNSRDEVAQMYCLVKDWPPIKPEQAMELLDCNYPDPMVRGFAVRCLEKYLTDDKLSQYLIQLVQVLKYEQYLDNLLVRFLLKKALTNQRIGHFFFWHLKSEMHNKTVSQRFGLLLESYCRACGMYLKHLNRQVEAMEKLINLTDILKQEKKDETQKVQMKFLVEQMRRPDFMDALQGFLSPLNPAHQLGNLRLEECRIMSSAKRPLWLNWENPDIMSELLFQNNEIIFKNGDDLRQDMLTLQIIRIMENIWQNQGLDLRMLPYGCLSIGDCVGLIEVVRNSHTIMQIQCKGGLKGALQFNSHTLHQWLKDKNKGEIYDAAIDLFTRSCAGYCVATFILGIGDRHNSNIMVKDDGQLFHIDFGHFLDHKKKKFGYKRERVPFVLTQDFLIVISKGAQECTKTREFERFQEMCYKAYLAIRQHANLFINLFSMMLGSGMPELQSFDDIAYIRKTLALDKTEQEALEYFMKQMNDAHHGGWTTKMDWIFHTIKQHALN
Chain of PIK3CA E542K/PIK3R1 (p110 alpha E542K/p85 alpha) (P27986 whole entry partner): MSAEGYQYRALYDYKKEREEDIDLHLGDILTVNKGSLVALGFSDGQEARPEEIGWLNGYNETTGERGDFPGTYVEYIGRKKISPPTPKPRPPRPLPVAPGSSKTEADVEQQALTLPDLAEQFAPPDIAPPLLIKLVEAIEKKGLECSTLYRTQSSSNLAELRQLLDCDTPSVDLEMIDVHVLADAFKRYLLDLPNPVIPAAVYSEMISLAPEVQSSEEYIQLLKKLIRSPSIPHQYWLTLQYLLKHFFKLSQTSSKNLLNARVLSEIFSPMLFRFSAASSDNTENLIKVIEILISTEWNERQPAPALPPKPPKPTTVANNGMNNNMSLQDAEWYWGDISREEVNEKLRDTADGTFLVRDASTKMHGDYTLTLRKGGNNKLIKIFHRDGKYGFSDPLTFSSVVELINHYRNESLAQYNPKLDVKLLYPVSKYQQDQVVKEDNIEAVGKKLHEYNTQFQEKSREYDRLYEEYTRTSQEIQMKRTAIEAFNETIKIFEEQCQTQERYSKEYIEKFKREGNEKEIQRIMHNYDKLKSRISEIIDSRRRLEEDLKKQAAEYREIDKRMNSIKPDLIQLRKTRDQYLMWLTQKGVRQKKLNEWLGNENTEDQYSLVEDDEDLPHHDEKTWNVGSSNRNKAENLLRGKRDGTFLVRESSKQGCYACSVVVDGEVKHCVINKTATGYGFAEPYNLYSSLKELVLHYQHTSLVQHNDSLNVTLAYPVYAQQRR

Row | inhibition at 1 µM [1] [%] | inhibition at 1 µM [2] [%] | inhibition at 1 µM [3] [%] | IC50 ([4]; read-out: PITCOIN1 (IC50)) [µM] | IC50 ([4]; read-out: PITCOIN3 (IC50)) [µM] | IC50 ([4]; read-out: PITCOIN2 (IC50)) [µM] | Compound
1 | 30 | 5 | 8 | > 10 |  |  | O=C(CSc1nc2nccnc2c(=O)n1CCc1ccccc1)Nc1nccs1 [compound 1, PITCOIN1]
2 | 6 | 14 | 4 |  | > 10 |  | CS(=O)(=O)Nc1cccc(-c2csc(NC(=O)CSc3nc4nccnc4c(=O)n3CCc3ccccc3)n2)c1 [compound 3, PITCOIN3]
3 | 9 | 9 | 5 |  |  | > 10 | O=C(CSc1nc2nccnc2c(=O)n1CCc1ccccc1)Nc1nc(-c2cccc(O)c2)cs1 [compound 2, PITCOIN2]
